ChEMBL document CHEMBL5725469, “C17-aryl substituted betulinic acid analogs” (2018)
pEC50: −log10 of the molar value.

Assay: HIV cell culture assay: MT-2 cells and 293T cells were obtained from the NIH AIDS Research and Reference Reagent Program. MT-2 cells were propagated in RPMI 1640 media supplemented with 10% heat inactivated fetal bovine serum, 100 μg/mL penicillin G and up to 100 units/mL streptomycin. The 293T cells were propagated in DMEM media supplemented with 10% heat inactivated fetal bovine serum (FBS), 100 units/mL penicillin G and 100 μg/mL streptomycin. The proviral DNA clone of NL4-3 was obtained from the NIH AIDS Research and Reference Reagent Program. A recombinant NL4-3 virus, in which a section of the nef gene from NL4-3 was replaced with the Renilla luciferase gene, was used as a reference virus. In addition, residue Gag P373 was converted to P373S. Briefly, the recombinant virus was prepared by transfection of the altered proviral clone of NL4-3. Transfections were performed in 293T cells using LipofectAMINE PLUS from Invitrogen (Carlsbad, Calif.), according to manufacturer's instruction. The virus was titered in MT-2 cells using luciferase enzyme activity as a marker. Luciferase was quantitated using the Dual Luciferase kit from Promega (Madison, Wis.), with modifications to the manufacturer's protocol. The diluted Passive Lysis solution was pre-mixed with the re-suspended Luciferase Assay Reagent and the re-suspended Stop & Glo Substrate (2:1:1 ratio). Fifty (50) μL of the mixture was added to each aspirated well on assay plates and luciferase activity was measured immediately on a Wallac TriLux (Perkin-Elmer). Antiviral activities of inhibitors toward the recombinant virus were quantified by measuring luciferase activity in cells infected for 4-5 days with NLRluc recombinants in the presence serial dilutions of the inhibitor.
Assay type: cell-based

`C=C(C)[C@@H]1CC[C@]2(c3ncn(CCN4CCS(=O)(=O)CC4)n3)CC[C@]3(C)[C@H](CC[C@@H]4[C@@]5(C)CC=C(c6ccc(C(=O)O)cc6)C(C)(C)[C@@H]5CC[C@]43C)[C@@H]12` and `C=C(C)[C@@H]1CC[C@]2(c3ncnn3C)CC[C@]3(C)[C@H](CC[C@@H]4[C@@]5(C)CC=C(c6ccc(C(=O)O)cc6)C(C)(C)[C@@H]5CC[C@]43C)[C@@H]12` cannot be ordered by pEC50: less than 7.00 for the first, less than 7.00 for the second.

`C=C(C)[C@@H]1CC[C@]2(c3nnc(CN(C)C)o3)CC[C@]3(C)[C@H](CC[C@@H]4[C@@]5(C)CC=C(c6ccc(C(=O)O)cc6)C(C)(C)[C@@H]5CC[C@]43C)[C@@H]12` and `C=C(C)[C@@H]1CC[C@]2(c3nnco3)CC[C@]3(C)[C@H](CC[C@@H]4[C@@]5(C)CC=C(c6ccc(C(=O)O)cc6)C(C)(C)[C@@H]5CC[C@]43C)[C@@H]12` cannot be ordered by pEC50: less than 7.00 for the first, less than 7.00 for the second.

Going from `C=C(C)[C@@H]1CC[C@]2(C#Cc3ccsc3-c3nnn[nH]3)CC[C@]3(C)[C@H](CC[C@@H]4[C@@]5(C)CC=C(c6ccc(C(=O)O)cc6)C(C)(C)[C@@H]5CC[C@]43C)[C@@H]12` to `C=C(C)[C@@H]1CC[C@]2(c3nc[nH]n3)CC[C@]3(C)[C@H](CC[C@@H]4[C@@]5(C)CC=C(c6ccc(C(=O)O)cc6)C(C)(C)[C@@H]5CC[C@]43C)[C@@H]12`, the pEC50 falls from greater than 7.00 to less than 7.00.
